Data from patent US8877707B2, “Inhibitors of HCV NS5A” (Presidio Pharmaceuticals, Inc., priority 2010, dated 2014).
pEC50: −log10 of the molar value. Like-named read-outs stand apart in the source and are kept apart here.

Test system: HCV genotype 1b replicon in Huh 7 cells
Test: HCV replicon assay (1b_Huh-Luc/Neo-ET cell line, luciferase readout)
Type: cell-based
Details: Hepatitis C virus, read-out: Inhibition of HCV genotype 1b
In short: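 Replicon level was read as luciferase signal after 72 h compound exposure, triplicate wells, starting the day after cells were plated. Cell line: 1b_Huh-Luc/Neo-ET. Values normalised to control as percent, and EC50 fitted with a variable-slope sigmoid; determinations repeated.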

[1] = Table 1, genotype 1b replicon, Huh 7 cells, 72 h, luciferase
[2] = Table 2, genotype 1b replicon, Huh 7 cells, 72 h, luciferase

Structure (SMILES)	pEC50 [1]	other results
COC(=O)N[C@H](C(=O)N1CCC[C@H]1c1nc2ccc(-c3cccc4c(-c5ccc6nc([C@@H]7CCCN7C(=O)[C@@H](NC(=O)OC)C(C)C)[nH]c6c5)cccc34)cc2[nH]1)C(C)C [compound 277]	> 9.00	–
COC(=O)N[C@H](C(=O)N1CCC[C@H]1c1ncc(-c2ccc(-c3ccc4cc(-c5cnc([C@@H]6CCCN6C(=O)[C@H](NC(=O)OC)c6ccccc6)[nH]5)ccc4n3)c(F)c2)[nH]1)C(C)C [compound 119]	> 9.00	–
COC(=O)N[C@H](C(=O)N1CCC[C@H]1c1ncc(-c2cnc3cc(-c4ccc5nc([C@@H]6CCCN6C(=O)[C@H](NC(=O)OC)c6ccccc6)[nH]c5c4)ccc3c2)[nH]1)C(C)C [compound 188]	8.00 to 9.00	–
COC(=O)N[C@@H](C(=O)N1CCC[C@H]1c1nc(-c2ccc3nc(-c4ccc(-c5cnc([C@@H]6CCCN6C(=O)[C@H](NC(=O)OC)c6ccccc6)[nH]5)cc4)cc(OC)c3c2)c[nH]1)c1ccccc1 [compound 78]	> 9.00	–
COC(=O)N[C@H](C(=O)N1CCC[C@H]1c1ncc(-c2ccc3nc(-c4ccc(-c5cnc([C@@H]6CCCN6C(=O)[C@H](NC(=O)OC6CCOCC6)c6ccccc6)[nH]5)c(F)c4)ccc3c2)[nH]1)C(C)C [compound 452]	–	pEC50 (Huh-7, HCV 1b replicon): > 9.00
COC(=O)N[C@H](C(=O)N1CCC[C@H]1CNC(=O)c1ccc(-c2ccc3cc(-c4cnc([C@@H]5CCCN5C(=O)[C@@H](NC(=O)OC)C(C)C)[nH]4)ccc3c2)cc1)C(C)C [compound 565]	–	pEC50 (Huh-7, HCV 1b replicon): > 9.00
COC(=O)N[C@H](C(=O)N1CCC[C@H]1c1ncc(-c2ccc(-c3ccc4cc(-c5c[nH]c([C@@H]6CCCN6C(=O)[C@H](NC(=O)OC)c6ccccc6)n5)cnc4c3)c(F)c2)[nH]1)C(C)C [compound 58]	> 9.00	–
CC[C@@H](C)[C@H](NC(=O)OC)C(=O)N1CCC[C@H]1c1ncc(-c2ccc(-c3ccc4cc(-c5cnc([C@@H]6CCCN6C(=O)[C@@H](NC(=O)OC)[C@H](C)CC)[nH]5)ccc4c3)cc2)[nH]1 [compound 142]	> 9.00	–
COC(=O)N[C@H](C(=O)N1CCC[C@H]1c1ncc(-c2ccc3cc(-c4cnc5nc([C@@H]6CCCN6C(=O)[C@@H](NC(=O)OC)C6CCCC6)[nH]c5c4)ccc3c2)[nH]1)C1CCCC1 [compound 403]	–	pEC50 [2]: > 9.00
COC(=O)N[C@H](C(=O)N1CCC[C@H]1c1ncc(-c2ccc(-c3ccc4cc(-c5c[nH]c([C@@H]6CCCN6C(=O)[C@H](NC(=O)OC)c6ccccc6)n5)ccc4c3)c(F)c2)[nH]1)C1CCOCC1 [compound 106]	> 9.00	–
COC(=O)N[C@H](C(=O)N1CCC[C@H]1c1nc2ccc(-c3ccc4cc(-c5cnc([C@@H]6CCCN6C(=O)[C@@H](NC(=O)OC)C6CCOCC6)[nH]5)ccc4n3)cc2[nH]1)C(C)C [compound 194]	> 9.00	–
COC(=O)N[C@H](C(=O)N1CCC[C@H]1c1nc(-c2ccc3cc(-c4ccc(-c5cnc([C@@H]6CCCN6C(=O)[C@@H](NC(=O)OC)C6CCOCC6)[nH]5)cc4)ccc3c2)c[nH]1)C(C)C [compound 46]	> 9.00	–
COC(=O)N[C@H](C(=O)N1CCC[C@H]1c1ncc(-c2ccc3cc(-c4ccc(-c5cnc([C@@H]6CCCN6C(=O)[C@@H](NC(=O)OC)C6CCOCC6)[nH]5)nn4)ccc3c2)[nH]1)C1CCOCC1 [compound 314]	–	pEC50 [2]: > 9.00
COC(=O)N[C@@H](C)C(=O)N1CCC[C@H]1c1ncc(-c2ccc3cc(-c4ccc(-c5cnc([C@@H]6COCCN6C(=O)[C@H](NC(=O)OC)c6ccccc6)[nH]5)cc4)ccc3c2)[nH]1 [compound 322]	–	pEC50 [2]: > 9.00
COC(=O)N[C@H](C(=O)N1CCC[C@H]1c1ncc(-c2ccc3cc(-c4ccc5nc([C@@H]6COCCN6C(=O)[C@@H](NC(=O)OC)C6CC6)[nH]c5c4)ccc3c2)[nH]1)C1CC1 [compound 356]	–	pEC50 [2]: > 9.00
COC(=O)N[C@H](C(=O)N1CCC[C@H]1c1ncc(-c2ccc3cc(-c4ccc(-c5cnc([C@@H]6CCCN6C(=O)[C@H](NC(=O)OC)c6ccccc6)[nH]5)c(F)c4)ncc3c2)[nH]1)C1CCOCC1 [compound 127]	> 9.00	–
COC(=O)N[C@H](C(=O)N1CCC[C@H]1c1ncc(-c2ccc3nc(-c4ccc(-c5cnc([C@@H]6CCCN6C(=O)[C@H](NC(=O)OC)c6ccccc6)[nH]5)c(F)c4)ccc3c2)[nH]1)C(C)C [compound 453]	–	pEC50 (Huh-7, HCV 1b replicon): > 9.00
COC(=O)N[C@H](C(=O)N1CCC[C@H]1c1ncc(-c2ccc(-c3cc4ccc(-c5cnc([C@@H]6CCCN6C(=O)[C@H](NC(=O)OC)c6ccccc6)[nH]5)cc4cn3)c(F)c2)[nH]1)C(C)C [compound 167]	> 9.00	–
COC(=O)N[C@H](C(=O)N1CCC[C@H]1c1ncc(-c2ccc3nc(-c4ccc5nc([C@@H]6CCCN6C(=O)[C@@H](NC(=O)OC)C(C)C)[nH]c5c4)ccc3c2)[nH]1)C(C)C [compound 193]	> 9.00	–
COC(=O)N[C@@H](C(=O)N1CCC[C@H]1c1nc(-c2ccc3nc(C45CCC(c6cnc([C@@H]7CCCN7C(=O)[C@H](NC(=O)OC)c7ccccc7)[nH]6)(CC4)CC5)ccc3c2)c[nH]1)c1ccccc1 [compound 263]	> 9.00	–

Structure (SMILES)	pEC50 [1]	other results
COC(=O)N[C@H](C(=O)N1CCC[C@H]1c1ncc(-c2ccc3cc(-c4ccc5nc([C@@H]6CCCN6C(=O)[C@H](NC(=O)N6CC[C@H](O)C6)c6ccccc6)[nH]c5c4)ccc3c2)[nH]1)C(C)C [compound 185]	> 9.00	–
COC(=O)N[C@H](C(=O)N1CCC[C@H]1c1nc(-c2ccc3nc(N4CCC(c5cnc([C@@H]6CCCN6C(=O)[C@@H](NC(=O)OC)C(C)C)[nH]5)CC4)ccc3c2)c[nH]1)C(C)C [compound 275]	> 9.00	–
COC(=O)N[C@H](C(=O)N1CCC[C@H]1c1ncc(-c2ccc3cc(-c4ccc5nc([C@@H]6CCCN6C(=O)[C@@H](NC(=O)OC)[C@@H](C)OC)[nH]c5c4)ccc3c2)[nH]1)[C@@H](C)OC [compound 176]	> 9.00	–
COC(=O)N[C@H](C(=O)N1CCC[C@H]1c1nc(-c2cnc3cc(-c4ccc(-c5cnc([C@@H]6CCCN6C(=O)[C@H](NC(=O)OC)c6ccccc6)[nH]5)cc4)ccc3c2)c[nH]1)C1CCOCC1 [compound 71]	> 9.00	–
COC(=O)N[C@@H](C(=O)N1CCC[C@H]1CNC(=O)c1cnc2cc(-c3ccc4c(c3)CCc3nc([C@@H]5CCCN5C(=O)[C@H](NC(=O)OC)c5ccccc5)[nH]c3-4)ccc2c1)c1ccccc1 [compound 548]	–	pEC50 (Huh-7, HCV 1b replicon): > 9.00
COC(=O)N[C@@H](C(=O)N1CCC[C@H]1C(=O)NCc1ccc(-c2ccc3cc(-c4cnc([C@@H]5CCCN5C(=O)[C@H](NC(=O)OC)c5ccccc5)[nH]4)ccc3n2)cc1)c1ccccc1 [compound 547]	–	pEC50 (Huh-7, HCV 1b replicon): > 9.00
COC(=O)N[C@H](C(=O)N1CCC[C@H]1c1ncc(-c2ccc3oc(-c4ccc(-c5cnc([C@@H]6CCCN6C(=O)[C@@H](NC(=O)OC)C6CCOCC6)[nH]5)cc4)nc3c2)[nH]1)C(C)C [compound 259]	> 9.00	–
COC(=O)N[C@H](C(=O)N1CCC[C@H]1c1ncc(-c2ccc3cc(-c4ccc(-c5cnc([C@@H]6CCCN6C(=O)[C@@H](NC(=O)OC)C6CCOCC6)[nH]5)cc4F)ncc3c2)[nH]1)C(C)C [compound 151]	> 9.00	–
COC(=O)N[C@H](C(=O)N1CCC[C@H]1c1nc2ccc(-c3ccc4cc(-c5ccc6nc([C@@H]7CCCN7C(=O)[C@@H](NC(=O)OC)C(C)C)[nH]c6c5)nnc4c3)cc2[nH]1)C(C)C [compound 537]	–	pEC50 (Huh-7, HCV 1b replicon): > 9.00
COC(=O)N[C@H](C(=O)N1CCC[C@H]1c1ncc(-c2ccc3cc(-c4ccc5nc([C@@H]6CCCN6C(=O)[C@@H](NC(=O)OC)C6CCOCC6)[nH]c5c4)ncc3c2)[nH]1)C1CCOCC1 [compound 217]	8.00 to 9.00	–
COC(=O)N[C@H](C(=O)N1CCC[C@H]1c1ncc(-c2ccc(-c3ccc4cc(-c5c[nH]c([C@@H]6CCCN6C(=O)[C@H](NC(=O)N6CC[C@H](O)C6)c6ccccc6)n5)ccc4c3)cc2)[nH]1)C(C)C [compound 15]	> 9.00	–
COC[C@H](NC(=O)OC)C(=O)N1CCC[C@H]1c1ncc(-c2ccc(-c3ccc4cc(-c5cnc([C@@H]6CCCN6C(=O)[C@H](COC)NC(=O)OC)[nH]5)ccc4c3)cc2)[nH]1 [compound 463]	–	pEC50 (Huh-7, HCV 1b replicon): > 9.00
COC(=O)N[C@H](C(=O)N1CCC[C@H]1c1nc(-c2ccc3nc(-c4ccc(-c5cnc([C@@H]6CCCN6C(=O)[C@@H](NC(=O)OC)C6CCOCC6)[nH]5)c(F)c4)ccc3c2)c[nH]1)C1CCOCC1 [compound 108]	> 9.00	–
COC(=O)N[C@H](C(=O)N1CCC[C@H]1c1ncc(-c2ccc(-c3ccc4cc(-c5cnc([C@@H]6C[C@@H](O)CN6C(=O)[C@@H](NC(=O)OC)C(C)C)[nH]5)ccc4c3)cc2)[nH]1)C(C)C [compound 305]	–	pEC50 [2]: > 9.00
COC(=O)N[C@H](C(=O)N1CCC[C@H]1c1ncc(-c2ccc3cc(-c4ccc5nc([C@@H]6CCCN6C(=O)[C@@H](NC(=O)OC)C6CCCC6)[nH]c5n4)ccc3c2)[nH]1)C1CCCC1 [compound 515]	–	pEC50 (Huh-7, HCV 1b replicon): > 9.00
COC(=O)N[C@H](C(=O)N1CCC[C@H]1c1ncc(-c2ccc3cc(-c4ccc5nc([C@@H]6CCCN6C(=O)[C@@H](NC(=O)OC)[C@@H](C)OC)[nH]c5c4)ncc3c2)[nH]1)[C@@H](C)OC [compound 377]	–	pEC50 [2]: > 9.00
COC(=O)N[C@@H](C)C(=O)N1CCC[C@H]1C(=O)NCc1ccc(-c2ccc3cc(-c4cnc([C@@H]5CCCN5C(=O)[C@H](C)NC(=O)OC)[nH]4)ccc3c2)cc1 [compound 566]	–	pEC50 (Huh-7, HCV 1b replicon): 6.00 to 8.00
CCNC(=O)N[C@@H](C(=O)N1CCC[C@H]1c1ncc(-c2ccc(-c3nc4ccc(-c5cnc([C@@H]6CCCN6C(=O)[C@@H](NC(=O)OC)C(C)C)[nH]5)cc4o3)cc2)[nH]1)c1ccccc1 [compound 257]	> 9.00	–
COC(=O)N[C@@H](C(=O)N1CCC[C@H]1c1nc(-c2ccc3c(c2)CCN(c2c(F)cc(-c4cnc([C@@H]5CCCN5C(=O)[C@H](NC(=O)OC)c5ccccc5)[nH]4)cc2F)C3)c[nH]1)c1ccccc1 [compound 270]	> 9.00	–
CC[C@H](NC(=O)OC)C(=O)N1CCC[C@H]1c1ncc(-c2ccc3cc(-c4ccc5nc([C@@H]6CCCN6C(=O)[C@H](CC)NC(=O)OC)[nH]c5c4)ccc3c2)[nH]1 [compound 226]	> 9.00	–
